# According to ChEMBL document CHEMBL1667852, “Isosteric replacement of the Z-enone with haloethyl ketone and E-enone in a resorcylic acid lactone series and biological evaluation” (Bioorg Med Chem Lett, 2011):
# Active and inactive are the calls of the source. The rule behind the calls is not given here.
# Assays:
# HUVEC [1] = experiment: Antiangiogenic activity against HUVEC co-cultured with vascular smooth muscle cells assessed as inhibition of organotypic capillary network formation at 33 uM after 72 hrs; format: functional, cell-based; details: Homo sapiens
# HUVEC [2] = experiment: Antiangiogenic activity against HUVEC co-cultured with vascular smooth muscle cells assessed as inhibition of tube formation at 33 uM after 72 hrs; format: functional, cell-based; details: Homo sapiens
# [3] = molecular target: Mast/stem cell growth factor receptor Kit (Homo sapiens, UniProt P10721); experiment: Inhibition of human recombinant c-kit kinase in cell free system after 30 mins
# [4] = molecular target: Vascular endothelial growth factor receptor 1 (Homo sapiens, UniProt P17948); experiment: Inhibition of human recombinant VEGFR1 expressed in Sf9 cells after 10 mins
# [5] = molecular target: Vascular endothelial growth factor receptor 2 (Homo sapiens, UniProt P35968); experiment: Inhibition of human recombinant VEGFR2 expressed in Sf9 cells after 60 mins
# Jurkat [6] = experiment: Antiproliferative activity against human Jurkat cells after 24 hrs by celltiter glo assay
# Jurkat [7] = experiment: Antiproliferative activity against human Jurkat cells after 48 hrs by celltiter glo assay
# [8] = molecular target: Vascular endothelial growth factor receptor 3 (Homo sapiens, UniProt P35916); experiment: Inhibition of human recombinant VEGFR3 in cell free system after 90 mins
# Chain of Vascular endothelial growth factor receptor 3 (P35916 whole entry): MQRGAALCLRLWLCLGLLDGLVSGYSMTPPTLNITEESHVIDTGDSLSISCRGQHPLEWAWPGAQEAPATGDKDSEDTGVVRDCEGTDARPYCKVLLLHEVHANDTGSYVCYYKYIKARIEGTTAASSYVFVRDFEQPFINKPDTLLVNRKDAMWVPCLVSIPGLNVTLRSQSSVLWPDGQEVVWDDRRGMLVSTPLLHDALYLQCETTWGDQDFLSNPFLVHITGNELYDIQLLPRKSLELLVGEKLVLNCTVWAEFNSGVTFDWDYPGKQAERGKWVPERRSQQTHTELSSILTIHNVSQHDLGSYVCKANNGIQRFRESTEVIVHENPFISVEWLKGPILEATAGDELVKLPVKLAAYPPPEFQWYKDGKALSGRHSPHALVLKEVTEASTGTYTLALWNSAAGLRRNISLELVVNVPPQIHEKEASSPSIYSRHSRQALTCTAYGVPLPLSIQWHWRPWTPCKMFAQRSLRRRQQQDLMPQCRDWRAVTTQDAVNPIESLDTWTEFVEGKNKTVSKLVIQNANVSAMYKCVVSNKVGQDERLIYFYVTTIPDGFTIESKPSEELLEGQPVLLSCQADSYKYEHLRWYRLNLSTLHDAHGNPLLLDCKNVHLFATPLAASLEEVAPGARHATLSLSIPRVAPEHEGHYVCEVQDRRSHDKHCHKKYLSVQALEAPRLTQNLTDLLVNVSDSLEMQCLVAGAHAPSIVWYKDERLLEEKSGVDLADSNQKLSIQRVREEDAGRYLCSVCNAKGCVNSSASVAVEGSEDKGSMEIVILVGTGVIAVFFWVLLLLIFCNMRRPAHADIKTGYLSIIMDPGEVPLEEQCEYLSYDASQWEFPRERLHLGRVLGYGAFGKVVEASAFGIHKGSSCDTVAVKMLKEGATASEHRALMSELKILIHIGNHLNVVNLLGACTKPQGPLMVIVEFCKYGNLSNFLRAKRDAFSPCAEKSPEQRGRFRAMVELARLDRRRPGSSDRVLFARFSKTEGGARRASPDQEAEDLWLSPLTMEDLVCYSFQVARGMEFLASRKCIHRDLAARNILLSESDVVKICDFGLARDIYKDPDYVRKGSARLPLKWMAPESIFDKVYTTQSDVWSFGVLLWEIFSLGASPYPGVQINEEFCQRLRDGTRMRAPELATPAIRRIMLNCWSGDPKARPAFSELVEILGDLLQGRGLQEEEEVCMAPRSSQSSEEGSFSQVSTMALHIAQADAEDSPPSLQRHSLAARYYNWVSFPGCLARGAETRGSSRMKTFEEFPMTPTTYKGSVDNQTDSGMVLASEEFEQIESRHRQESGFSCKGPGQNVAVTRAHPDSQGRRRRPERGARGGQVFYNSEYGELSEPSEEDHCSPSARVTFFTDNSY
# [9] = molecular target: Platelet-derived growth factor receptor beta (Homo sapiens, UniProt P09619); experiment: Inhibition of human recombinant PDGFRbeta expressed in insect cells after 30 mins
# Chain of Platelet-derived growth factor receptor beta (P09619 whole entry): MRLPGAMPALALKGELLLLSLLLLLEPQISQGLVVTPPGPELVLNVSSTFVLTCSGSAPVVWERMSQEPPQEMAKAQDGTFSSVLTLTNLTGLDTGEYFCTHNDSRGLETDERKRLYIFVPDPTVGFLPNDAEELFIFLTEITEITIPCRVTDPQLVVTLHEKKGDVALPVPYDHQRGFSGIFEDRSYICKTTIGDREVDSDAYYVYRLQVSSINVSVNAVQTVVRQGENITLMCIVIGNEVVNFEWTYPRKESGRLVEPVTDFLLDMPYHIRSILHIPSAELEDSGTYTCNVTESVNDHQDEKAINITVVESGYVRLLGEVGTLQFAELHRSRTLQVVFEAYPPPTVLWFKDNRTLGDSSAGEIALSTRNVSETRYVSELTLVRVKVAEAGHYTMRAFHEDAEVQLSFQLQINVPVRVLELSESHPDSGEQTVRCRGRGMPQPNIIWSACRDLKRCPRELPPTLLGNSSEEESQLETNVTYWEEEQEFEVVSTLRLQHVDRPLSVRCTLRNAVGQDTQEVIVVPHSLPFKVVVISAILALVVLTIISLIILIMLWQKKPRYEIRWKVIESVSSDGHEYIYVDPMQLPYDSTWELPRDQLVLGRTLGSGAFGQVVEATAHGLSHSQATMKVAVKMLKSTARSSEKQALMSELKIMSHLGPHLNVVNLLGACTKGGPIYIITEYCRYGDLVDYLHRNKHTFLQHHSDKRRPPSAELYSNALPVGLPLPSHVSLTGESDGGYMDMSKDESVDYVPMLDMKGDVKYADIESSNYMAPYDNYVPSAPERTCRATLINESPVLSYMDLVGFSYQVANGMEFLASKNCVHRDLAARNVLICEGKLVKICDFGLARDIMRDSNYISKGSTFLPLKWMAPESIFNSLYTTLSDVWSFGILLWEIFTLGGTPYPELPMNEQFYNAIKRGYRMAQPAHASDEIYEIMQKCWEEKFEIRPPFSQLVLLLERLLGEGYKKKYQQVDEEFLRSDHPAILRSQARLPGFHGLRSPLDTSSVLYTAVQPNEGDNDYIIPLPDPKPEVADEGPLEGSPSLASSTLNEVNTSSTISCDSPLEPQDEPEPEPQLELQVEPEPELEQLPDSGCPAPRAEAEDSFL
# [10] = molecular target: Platelet-derived growth factor receptor alpha (Homo sapiens, UniProt P16234); experiment: Inhibition of human recombinant PDGFRalpha in cell free system after 60 mins
# Chain of Platelet-derived growth factor receptor alpha (P16234 whole entry): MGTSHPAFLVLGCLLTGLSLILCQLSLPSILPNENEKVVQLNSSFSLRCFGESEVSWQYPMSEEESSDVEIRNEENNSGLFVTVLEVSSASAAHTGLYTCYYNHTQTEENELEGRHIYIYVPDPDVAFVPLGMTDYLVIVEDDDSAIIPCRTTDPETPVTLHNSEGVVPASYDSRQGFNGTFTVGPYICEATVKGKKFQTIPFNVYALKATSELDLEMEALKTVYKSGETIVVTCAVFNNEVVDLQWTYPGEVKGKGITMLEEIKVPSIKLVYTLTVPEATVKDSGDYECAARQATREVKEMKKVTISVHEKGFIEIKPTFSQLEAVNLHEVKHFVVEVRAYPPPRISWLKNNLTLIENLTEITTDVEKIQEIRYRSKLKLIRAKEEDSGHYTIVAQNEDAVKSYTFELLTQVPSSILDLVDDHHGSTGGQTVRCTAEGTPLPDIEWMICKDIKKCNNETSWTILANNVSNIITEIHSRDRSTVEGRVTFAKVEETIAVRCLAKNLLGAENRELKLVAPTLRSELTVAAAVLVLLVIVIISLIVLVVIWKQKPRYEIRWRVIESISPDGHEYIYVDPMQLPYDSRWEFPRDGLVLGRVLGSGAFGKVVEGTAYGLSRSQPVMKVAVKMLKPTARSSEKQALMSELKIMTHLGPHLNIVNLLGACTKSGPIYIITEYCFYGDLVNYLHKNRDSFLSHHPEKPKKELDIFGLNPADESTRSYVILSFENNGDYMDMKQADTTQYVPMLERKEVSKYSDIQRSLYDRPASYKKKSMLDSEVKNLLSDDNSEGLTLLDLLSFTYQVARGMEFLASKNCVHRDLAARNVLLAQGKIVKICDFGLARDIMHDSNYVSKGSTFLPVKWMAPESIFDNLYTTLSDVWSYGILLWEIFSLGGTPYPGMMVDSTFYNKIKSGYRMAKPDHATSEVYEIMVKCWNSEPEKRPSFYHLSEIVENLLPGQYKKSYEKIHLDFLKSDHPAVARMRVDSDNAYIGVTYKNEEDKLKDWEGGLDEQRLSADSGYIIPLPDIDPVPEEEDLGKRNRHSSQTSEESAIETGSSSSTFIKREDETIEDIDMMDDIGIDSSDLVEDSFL
# [11] = molecular target: Mitogen-activated protein kinase 3 (Homo sapiens, UniProt P27361); experiment: Inhibition of human recombinant ERK1 expressed in E.coli after 30 mins
# Chain of Mitogen-activated protein kinase 3 (P27361 whole entry): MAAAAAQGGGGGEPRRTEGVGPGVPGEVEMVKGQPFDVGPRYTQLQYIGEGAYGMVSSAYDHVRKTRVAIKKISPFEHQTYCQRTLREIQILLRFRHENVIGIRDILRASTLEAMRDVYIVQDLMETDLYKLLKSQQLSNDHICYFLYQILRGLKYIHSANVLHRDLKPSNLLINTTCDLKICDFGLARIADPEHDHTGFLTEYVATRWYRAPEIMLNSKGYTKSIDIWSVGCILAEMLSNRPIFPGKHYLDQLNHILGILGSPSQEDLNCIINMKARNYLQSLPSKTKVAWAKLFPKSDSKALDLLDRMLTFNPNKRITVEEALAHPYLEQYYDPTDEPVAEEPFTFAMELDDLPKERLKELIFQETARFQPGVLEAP
# [12] = molecular target: Mitogen-activated protein kinase 7 (Homo sapiens, UniProt Q13164); experiment: Inhibition of human recombinant ERK5 in cell free system after 90 mins
# [13] = molecular target: Mitogen-activated protein kinase 1 (Homo sapiens, UniProt P28482); experiment: Inhibition of human recombinant ERK2 expressed in E.coli after 15 mins
# [14] = molecular target: T1, Receptor-type tyrosine-protein kinase FLT3 (Homo sapiens, UniProt P36888); experiment: Inhibition of human recombinant FLT-3 kinase expressed in insect cells after 90 mins
# T1 sequence (P36888 whole entry): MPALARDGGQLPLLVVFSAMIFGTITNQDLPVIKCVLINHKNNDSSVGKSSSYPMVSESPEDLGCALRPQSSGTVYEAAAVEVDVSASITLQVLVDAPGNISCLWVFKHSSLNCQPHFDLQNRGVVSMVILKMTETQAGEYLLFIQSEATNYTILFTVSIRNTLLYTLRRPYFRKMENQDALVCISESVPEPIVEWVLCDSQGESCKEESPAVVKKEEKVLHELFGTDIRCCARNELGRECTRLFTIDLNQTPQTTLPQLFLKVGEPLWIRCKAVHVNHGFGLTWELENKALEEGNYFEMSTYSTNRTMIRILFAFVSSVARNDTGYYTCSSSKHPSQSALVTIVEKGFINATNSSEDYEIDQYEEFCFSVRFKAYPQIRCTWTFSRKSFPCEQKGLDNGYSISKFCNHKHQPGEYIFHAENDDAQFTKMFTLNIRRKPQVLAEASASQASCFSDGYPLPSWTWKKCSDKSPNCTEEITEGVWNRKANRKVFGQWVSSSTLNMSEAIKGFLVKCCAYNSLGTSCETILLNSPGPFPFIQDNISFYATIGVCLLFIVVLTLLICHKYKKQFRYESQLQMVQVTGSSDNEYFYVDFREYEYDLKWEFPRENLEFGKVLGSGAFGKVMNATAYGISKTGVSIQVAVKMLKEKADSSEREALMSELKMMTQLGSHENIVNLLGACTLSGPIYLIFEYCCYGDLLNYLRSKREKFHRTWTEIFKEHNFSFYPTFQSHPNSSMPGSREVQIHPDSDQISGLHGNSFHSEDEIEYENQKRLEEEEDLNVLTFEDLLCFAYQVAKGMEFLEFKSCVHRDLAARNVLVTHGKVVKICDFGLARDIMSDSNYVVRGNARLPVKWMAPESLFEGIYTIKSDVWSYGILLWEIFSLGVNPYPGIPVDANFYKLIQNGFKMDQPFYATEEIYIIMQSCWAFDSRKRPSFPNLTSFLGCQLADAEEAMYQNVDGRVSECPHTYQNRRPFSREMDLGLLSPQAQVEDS
# [15] = molecular target: Glycogen synthase kinase-3 alpha (Homo sapiens, UniProt P49840); experiment: Inhibition of human recombinant GSK3alpha in cell free system after 60 mins
# Chain of Glycogen synthase kinase-3 alpha (P49840 whole entry): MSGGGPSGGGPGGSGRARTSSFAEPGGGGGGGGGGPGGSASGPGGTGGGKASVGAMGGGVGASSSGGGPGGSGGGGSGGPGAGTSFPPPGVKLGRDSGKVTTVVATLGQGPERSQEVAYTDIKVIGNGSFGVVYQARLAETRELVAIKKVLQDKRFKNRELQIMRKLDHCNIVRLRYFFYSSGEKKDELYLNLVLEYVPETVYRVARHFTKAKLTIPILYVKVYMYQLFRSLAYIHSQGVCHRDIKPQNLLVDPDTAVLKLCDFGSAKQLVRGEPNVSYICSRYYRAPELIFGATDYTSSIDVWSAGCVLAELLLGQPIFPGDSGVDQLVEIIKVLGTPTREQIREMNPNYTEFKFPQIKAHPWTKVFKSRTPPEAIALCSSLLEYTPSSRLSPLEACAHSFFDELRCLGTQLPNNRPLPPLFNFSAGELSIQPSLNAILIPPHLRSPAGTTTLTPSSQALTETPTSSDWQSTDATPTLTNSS
# [16] = molecular target: Glycogen synthase kinase-3 beta (Homo sapiens, UniProt P49841); experiment: Inhibition of human recombinant GSK3-beta in cell free system after 90 mins
# [17] = molecular target: Dual specificity mitogen-activated protein kinase kinase 1 (Homo sapiens, UniProt Q02750); experiment: Inhibition of human recombinant MEK1 expressed in insect cells after 20 mins
# Chain of Dual specificity mitogen-activated protein kinase kinase 1 (Q02750 whole entry): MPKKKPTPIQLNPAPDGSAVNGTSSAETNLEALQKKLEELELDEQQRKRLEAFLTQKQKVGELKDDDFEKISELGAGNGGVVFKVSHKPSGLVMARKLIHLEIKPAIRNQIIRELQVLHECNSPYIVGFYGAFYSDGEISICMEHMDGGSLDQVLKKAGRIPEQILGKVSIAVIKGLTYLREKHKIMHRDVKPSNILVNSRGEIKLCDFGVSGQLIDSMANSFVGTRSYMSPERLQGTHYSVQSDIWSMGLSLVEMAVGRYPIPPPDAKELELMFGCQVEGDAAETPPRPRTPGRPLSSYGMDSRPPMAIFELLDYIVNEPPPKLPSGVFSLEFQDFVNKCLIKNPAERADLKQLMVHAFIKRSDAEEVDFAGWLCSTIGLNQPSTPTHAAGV
# HUVEC [18] = experiment: Antiangiogenic activity against HUVEC co-cultured with vascular smooth muscle cells assessed as inhibition of organotypic capillary network formation at 11 uM after 72 hrs; format: functional, cell-based; details: Homo sapiens
# HUVEC [19] = experiment: Antiangiogenic activity against HUVEC co-cultured with vascular smooth muscle cells assessed as inhibition of tube formation at 11 uM after 72 hrs; format: functional, cell-based; details: Homo sapiens
# HUVEC [20] = experiment: Antiangiogenic activity against HUVEC co-cultured with vascular smooth muscle cells assessed as inhibition of organotypic capillary network formation upto 100 uM after 72 hrs; format: functional, cell-based; details: Homo sapiens
# HUVEC [21] = experiment: Antiangiogenic activity against HUVEC co-cultured with vascular smooth muscle cells assessed as inhibition of tube formation upto 100 uM after 72 hrs; format: functional, cell-based; details: Homo sapiens
Structure (SMILES),IC50 [3] [µM],IC50 [4] [µM],IC50 [5] [nM],IC50 (Jurkat [6]) [µM],IC50 (Jurkat [7]) [µM],IC50 [8] [nM],IC50 [10] [nM],IC50 [14] [nM],IC50 [17] [µM],also measured
COc1cc(O)c2c(c1)/C=C/CCCC(O)C[C@H](Cl)C[C@H](C)OC2=O (some centres not stated),–,–,–,–,–,–,–,–,–,Activity (HUVEC [1]): Active; Activity (HUVEC [2]): Active
COc1cc(O)c2c(c1)CCCCCC(=O)C[C@H](Br)C[C@H](C)OC2=O,11,> 100,4300,11.4,9.7,–,–,–,–,–
COc1cc(O)c2c(c1)/C=C\CCCC(=O)C[C@H](Cl)C[C@H](C)OC2=O,100,–,82000,9.5,8.8,> 100000,–,–,–,–
COc1cc(O)c2c(c1)/C=C/CCCC(=O)C[C@H](Br)C[C@H](C)OC2=O,2.8,–,> 100000,11.7,9.7,–,–,–,–,IC50 [9]: > 100 µM
COc1cc(O)c2c(c1)/C=C/C[C@@H](O)[C@H](O)C(=O)/C=C\C[C@H](C)OC2=O,0.0096,0.012,0.49,7,5.5,0.5,0.24,4.9,0.002,IC50 [11]: 1.4 µM; IC50 [12]: > 100 µM; IC50 [13]: 1.3 µM; IC50 [15]: 1.9 µM; IC50 [16]: 18 µM
COc1cc(O)c2c(c1)CCCCCC(=O)/C=C/C[C@H](C)OC2=O,1.3,33,310,13,9.7,720,89,330,12,IC50 [11]: > 100 µM; IC50 [13]: > 100 µM; IC50 [15]: > 100 µM; Activity (HUVEC [18]): Active; Activity (HUVEC [19]): Active
COc1cc(O)c2c(c1)/C=C\CCCC(=O)/C=C/C[C@H](C)OC2=O,1.4,15,2300,19.5,15.4,1600,450,590,> 100,IC50 [9]: > 100 µM
COc1cc(O)c2c(c1)/C=C/CCCC(=O)/C=C/C[C@H](C)OC2=O,1.3,51,1000,11,8.9,1400,27,330,22,IC50 [9]: 9.2 µM; IC50 [11]: > 100 µM; IC50 [13]: > 100 µM; IC50 [15]: > 100 µM; IC50 [16]: > 100 µM
COc1cc(O)c2c(c1)CCCCCC(=O)C[C@H](Cl)C[C@H](C)OC2=O,47,–,93000,10.6,8.4,–,–,–,–,–
COc1cc(O)c2c(c1)/C=C\CCCC(=O)C[C@H](Br)C[C@H](C)OC2=O,81,–,24000,6.1,7.5,–,–,–,–,–
COc1cc(O)c2c(c1)CCCCCC(=O)/C=C\C[C@H](C)OC2=O,4.1,> 100,540,26,11,1200,440,850,17,–
COc1cc(O)c2c(c1)/C=C/CCCC(=O)C[C@H](Cl)C[C@H](C)OC2=O,> 100,–,–,10.9,9.2,> 100000,–,–,–,–
COc1cc(O)c2c(c1)CCCCCC(=O)CCC[C@H](C)OC2=O,–,–,–,–,–,–,–,–,–,Activity (HUVEC [20]): inactive; Activity (HUVEC [21]): inactive
